The subject of this experiment is P388 leukemia ip, CD2F1 mice, survival T/C. Put plainly: NCI In Vivo Anticancer Drug Screen. Data for tumor model P388 Leukemia (intraperitoneal) in CD2F1 (CDF1) mice. The note with it: endpoint: median survival time, higher = longer survival. The method in brief: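 Mice carrying the transplanted tumor received test compound or vehicle. Survival was recorded in each group, and the value is the treated-group measurement divided by that of the vehicle-treated control group.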

[1] abbreviates: dose: 50.0 mg/kg/injection, schedule: Q01DX005 (ip), vehicle: Klucel (hydroxypropylcellulose) (HPC).
[2] abbreviates: dose: 100.0 mg/kg/injection, schedule: Q01DX005 (ip), vehicle: Klucel (hydroxypropylcellulose) (HPC).
[3] abbreviates: dose: 100.0 mg/kg/injection, schedule: Q04DX003 (ip), vehicle: Klucel (hydroxypropylcellulose) (HPC).
[4] abbreviates: dose: 200.0 mg/kg/injection, schedule: Q04DX003 (ip), vehicle: Klucel (hydroxypropylcellulose) (HPC).
Where [5] appears, read: dose: 400.0 mg/kg/injection, schedule: Q04DX003 (ip), vehicle: Klucel (hydroxypropylcellulose) (HPC).

Where “and” joins values, the source holds several entries; their conditions need not be identical. Equal entries are not always repeated. Inconclusive results and toxic doses are left out.

As for `COc1cc2c(c(Cl)c1OC)CCN(C)CC2c1ccccc1` (stereo not given), the T/C is 102 % of control (dose: 60.0 mg/kg/injection, schedule: Q01DX005 (ip), vehicle: saline) and 98 % of control (dose: 120.0 mg/kg/injection, schedule: Q01DX005 (ip), vehicle: saline).

As to `COC1OC(COS(=O)(=O)c2ccc(C)cc2)C2OC(C)(C)OC12` (stereo not given), the T/C under setting [1] was 95 % of control and the T/C under setting [2] is 100 % of control.

Take `CCOC(=O)COc1cc2c(cc1Cc1ccc(OC)cc1)OCO2`: the T/C reads like this: (dose: 50.0 mg/kg/injection, schedule: Q01DX005 (ip), vehicle: saline with Tween-80) 97 % of control; (dose: 100.0 mg/kg/injection, schedule: Q01DX005 (ip), vehicle: saline with Tween-80) 92 % of control.

`COc1ccc(NP2(=O)N(Cc3ccc(Cl)cc3)CCCN2Cc2ccc(Cl)cc2)cc1`: the T/C is 100 % of control under setting [1] and 88 % of control under setting [2].

On to `CCCCOC(=O)/C=C/C(=O)N1CCN(C(=O)/C=C/C(=O)OCCCC)C(C)C1` (stereo not given), for which the T/C by setting is: under setting [1], 100 % of control; under setting [2], 94 % of control; (dose: 200.0 mg/kg/injection, schedule: Q01DX005 (ip), vehicle: Klucel (hydroxypropylcellulose) (HPC)) 96 % of control.

Take `CCC[CH2][Sn]([Cl])([Cl])[CH2]CCC`: the T/C reads like this: (dose: 0.19 mg/kg/injection, schedule: Q01DX009 (ip), vehicle: saline with Tween-80) 100 % of control; (dose: 0.38 mg/kg/injection, schedule: Q01DX009 (ip), vehicle: saline with Tween-80) 113 % of control; (dose: 0.75 mg/kg/injection, schedule: Q01DX009 (ip), vehicle: saline with Tween-80) 114 % of control and 120 % of control; (dose: 1.5 mg/kg/injection, schedule: Q01DX009 (ip), vehicle: saline with Tween-80) 112 % of control and 114 % of control; (dose: 3.0 mg/kg/injection, schedule: Q01DX009 (ip), vehicle: saline with Tween-80) 168 % of control; (dose: 6.0 mg/kg/injection, schedule: Q01DX009 (ip), vehicle: saline with Tween-80) 91 % of control. Further, the T/C (dose: 100.0 mg/kg/injection, schedule: Q04DX003 (ip), vehicle: saline) was 109 % of control.

For the compound `CCN(CC)c1ccc(/C=C2/C=Cc3ccccc32)cc1`, the T/C was 105 % of control (dose: 100.0 mg/kg/injection, schedule: Q01DX009 (ip), vehicle: saline with Tween-80); 100 % of control (dose: 200.0 mg/kg/injection, schedule: Q01DX009 (ip), vehicle: saline with Tween-80); 95 % of control (dose: 400.0 mg/kg/injection, schedule: Q01DX009 (ip), vehicle: saline with Tween-80).

As for `Cc1c(N2CCCC2)cc2c(c1-n1cccc1)C(C)(C)CC2(C)C`, the T/C by setting is: (dose: 50.0 mg/kg/injection, schedule: Q01DX009 (ip), vehicle: Klucel (hydroxypropylcellulose) (HPC)) 102 % of control; (dose: 100.0 mg/kg/injection, schedule: Q01DX009 (ip), vehicle: Klucel (hydroxypropylcellulose) (HPC)) 96 % of control; (dose: 200.0 mg/kg/injection, schedule: Q01DX009 (ip), vehicle: Klucel (hydroxypropylcellulose) (HPC)) 96 % of control.

For `COC(CNC(=O)Nc1cccnc1)[CH2][Hg][Cl]` (stereo not given), the T/C reads like this: (dose: 25.0 mg/kg/injection, schedule: Q04DX003 (ip), vehicle: saline with Tween-80) 91 % of control; (dose: 50.0 mg/kg/injection, schedule: Q04DX003 (ip), vehicle: saline with Tween-80) 116 % of control.

Take `c1ccc2c(c1)nnn1c3cnccc3nc21`: the T/C (dose: 12.5 mg/kg/injection, schedule: Q01DX009 (ip), vehicle: saline with Tween-80) was 111 % of control.

`C=C1CC2(CC3CC(C2C)C3(C)C)OC1=O` (stereo not given): the T/C is, setting by setting: (dose: 25.0 mg/kg/injection, schedule: Q04DX002 (ip), vehicle: saline) 102 % of control; (dose: 50.0 mg/kg/injection, schedule: Q04DX002 (ip), vehicle: saline) 100 % of control; (dose: 100.0 mg/kg/injection, schedule: Q04DX002 (ip), vehicle: saline) 100 % of control and 90 % of control; (dose: 400.0 mg/kg/injection, schedule: Q04DX002 (ip), vehicle: saline) 100 % of control.

For `O=C1COCC(=O)OCCOCCOCCO1`, the T/C reads like this: under setting [3], 100 % of control; under setting [4], 100 % of control; under setting [5], 100 % of control.

`O=C(Cc1ccccc1)c1c[nH]c2c(O)ccc(O)c12`: the T/C (dose: 50.0 mg/kg/injection, schedule: Q04DX002 (ip), vehicle: Klucel (hydroxypropylcellulose) (HPC)) is 104 % of control; the T/C (dose: 100.0 mg/kg/injection, schedule: Q04DX002 (ip), vehicle: Klucel (hydroxypropylcellulose) (HPC)) is 108 % of control; the T/C (dose: 200.0 mg/kg/injection, schedule: Q04DX002 (ip), vehicle: Klucel (hydroxypropylcellulose) (HPC)) is 111 % of control.

For `O=CC1N=C1c1ccccc1` (stereo not given), the T/C runs as follows: (dose: 100.0 mg/kg/injection, schedule: Q01DX001 (ip), vehicle: Klucel (hydroxypropylcellulose) (HPC)) 88 % of control; (dose: 200.0 mg/kg/injection, schedule: Q01DX001 (ip), vehicle: Klucel (hydroxypropylcellulose) (HPC)) 90 % of control.

Regarding `Cc1ccccc1C1N(Cc2ccccc2)C(=S)C1(C(C)C)C(C)(C)C` (stereo not given), the T/C is 102 % of control (dose: 100.0 mg/kg/injection, schedule: Q01DX001 (ip), vehicle: saline with Tween-80); 92 % of control (dose: 200.0 mg/kg/injection, schedule: Q01DX001 (ip), vehicle: saline with Tween-80); 94 % of control (dose: 400.0 mg/kg/injection, schedule: Q01DX001 (ip), vehicle: saline with Tween-80).

Consider `CCCCCCCCCCCCCCN1CCCN(CCCCCCCCCCCCCC)CC1`, for which the T/C runs as follows: (dose: 60.0 mg/kg/injection, schedule: Q01DX005 (ip), vehicle: saline with Tween-80) 92 % of control; (dose: 120.0 mg/kg/injection, schedule: Q01DX005 (ip), vehicle: saline with Tween-80) 94 % of control; (dose: 240.0 mg/kg/injection, schedule: Q01DX005 (ip), vehicle: saline with Tween-80) 88 % of control.

As to `COC1(OC)C2(Cl)CC3C4(C)OC(Cl)(C31Cl)C42Cl` (stereo not given), the T/C is, setting by setting: (dose: 60.0 mg/kg/injection, schedule: Q01DX005 (ip), vehicle: Klucel (hydroxypropylcellulose) (HPC)) 105 % of control; (dose: 120.0 mg/kg/injection, schedule: Q01DX005 (ip), vehicle: Klucel (hydroxypropylcellulose) (HPC)) 101 % of control; (dose: 240.0 mg/kg/injection, schedule: Q01DX005 (ip), vehicle: Klucel (hydroxypropylcellulose) (HPC)) 100 % of control.

In the case of `O=S1(=O)c2cccc(c2)NC(=S)/C([n+]2ccccc2)=C(/[O-])c2ccc(cc2)CC2CCCCN21` (stereo not given), the T/C is, setting by setting: under setting [1], 94 % of control; under setting [2], 87 % of control.

With `Cn1c(=O)c2c(N=NC(N)=S)c(O)[nH]c2n(C)c1=O`, the T/C was 100 % of control under setting [3], 108 % of control under setting [4] and 96 % of control under setting [5].

Regarding `O=C(Nc1cccc(Cl)c1)Nn1cnnc1`, the T/C by setting is: (dose: 50.0 mg/kg/injection, schedule: Q01DX009 (ip), vehicle: saline) 101 % of control; (dose: 100.0 mg/kg/injection, schedule: Q01DX009 (ip), vehicle: saline) 97 % of control; (dose: 200.0 mg/kg/injection, schedule: Q01DX009 (ip), vehicle: saline) 91 % of control.

Regarding `CC(NC(=O)OCc1ccccc1)C(=O)NC1C(O)OC(CO)C(O)C1O` (stereo not given), the T/C was 96 % of control (dose: 12.5 mg/kg/injection, schedule: Q01DX009 (ip), vehicle: other); 100 % of control (dose: 25.0 mg/kg/injection, schedule: Q01DX009 (ip), vehicle: other); 104 % of control (dose: 25.0 mg/kg/injection, schedule: Q01DX009 (ip), vehicle: water); 93 % of control (dose: 50.0 mg/kg/injection, schedule: Q01DX009 (ip), vehicle: water); 106 % of control (dose: 100.0 mg/kg/injection, schedule: Q01DX009 (ip), vehicle: water); 102 % of control (dose: 200.0 mg/kg/injection, schedule: Q01DX009 (ip), vehicle: water).

For `C/C=C/N1C(=O)C2C=CC1C(C(=O)OC)=C2C(=O)OC` (stereo not given), the T/C by setting is: (dose: 100.0 mg/kg/injection, schedule: Q01DX001 (ip), vehicle: saline) 100 % of control; (dose: 200.0 mg/kg/injection, schedule: Q01DX001 (ip), vehicle: saline) 99 % of control; (dose: 400.0 mg/kg/injection, schedule: Q01DX001 (ip), vehicle: saline) 94 % of control.

The values above are taken from PubChem BioAssay AID330 (DTP/NCI, 2004).
